Experimental findings from patent US5889018A, “Heterocyclic compounds, pharmaceutical compositions comprising them and process for the preparation thereof” (Egis Gyogyszergyar RT., priority 1994, dated 1999) are described below.

One series in a line: in vivo. Particulars: mouse, NMRI mice, 7 days observation. The method, then: White mice belonging to the NMRI strain (body weight 20 to 25 g. both male and female) were used, 6 animals for each dose. The test compound was administered orally in a volume of 20 ml/kg, the maximum oral and intraperitoneal doses were 1000 mg/kg and 300 mg/kg, respectively. […] The mice were kept under usual laboratory conditions.

Series [1] concerns Male Wistar rats (Charles River). The experiment in a line: Hole-Board Test, head-dipping activity. Type of series: in vivo. Particulars: Rattus norvegicus, po, 1 h, p.o., one hour before testing, from head-dipping activity, read-out: Minimum effective dose (mg/kg, p.o.). The method, then: The experiment was carried out according to a slightly modified method of File [File, S. E., Wardill, A. G., Psychopharmacologia, 44, 53-59, (1975)]. Male Wistar rats (Charles River) weighing 160-200 g were fasted for 24 hours prior to the experiment. They were treated orally in a volume of 5 ml/kg one hour before testing, a treated group consisted of 12 animals. The test compounds were suspended in 0,4 methylcellulose solution, the control group was treated with methylcellulose. All procedures were carried out in a quiet, air-conditioned laboratory between 9:00 and 13:00 hours at ambient temperature (23°+2° C.). Locomotor and head-dipping activity were measured using automated test chambers (Digiscan, OMNITECH Electronics Inc., Columbus, Ohio). The floor of each box contained 4 equally spaced holes (3.5 cm in diameter) through which rat could pop its head. Interruptions of infrared beams (16 of them is located 1.0 cm below and an other […] above the floor level) were automatically recorded by digiscan analyser and then transmitted to a computer and analysed by OASIS softwer. The hole-board testing involved placing a rat in the center of the floor and allowing it to explore for 5 minutes.
At the end of each trial any boluses were removed and the box was thoroughly wiped. Minimum effective doses of the compounds were calculated from the head-dipping activity values.

For the next series, the system named is Male Wistar rats. The experiment in a line: Vogel Test (Lick Conflict Test), anxiolytic activity. It counts as in vivo. Particulars: Rattus norvegicus, po, 1 h, p.o., one hour before testing, read-out: Minimum effective dose (mg/kg, p.o.). The procedure:
1. Vogel Test (Lick Conflict Test)
Male Wistar rats of 160 to 180 g body weight were kept free of food and drinking water for 24 and 48 hours, respectively. The test and carrier substances (0.4% methyl-cellulose) were administered orally one hour before testing. Groups consisting of 8 animals were used. The rats within the experimental chamber were provided with drinking water through an inserted tube. After the animals' each twenty lapping for water the device emitted a 1.4 mA intensity electric shock through the drinking tube. During 5 minutes the shocks tolerated by the animals in order to quench their thirst were counted. The effect of treatment was expressed as the % increase of the tolerated shocks. The minimum effective dose (MED) was determined for each test compound (Vogel, J. R., Beer, B., Clody, D. E.: Psycho-pharmacologia (Berl.) 21, 1 /1971/).

Series [2] concerns Male rats belonging to the Sprague Dawley strain. Nature of the series: Elevated Plus Maze Test on Rat, anxiolytic activity. It counts as in vivo. The settings on record: for minimal effective dose: Rattus norvegicus, po, 1 h, p.o., 60 minutes pretreatment, significant increase of time spent on the open arms, Sprague Dawley rats, read-out: Minimum effective dose (mg/kg, p.o.). The procedure:
1.2 Elevated Plus Maze Test on Rat
The test was carried out with the aid of a wooden plus-shaped maze elevated to a height of 50 cm. Two arms (100 cm long and 15 cm wide)--opposite to one another--were enclosed up to a height of 40 cm along their longer sides and at the end. The other two arms were without walls (open arms). The central 15×15 cm part was open. Male rats belonging to the Sprague Dawley strain and weighing 220 to 260 g were used as test animals. After pretreatment lasting 60 minutes the animals were placed into the central part of the maze. During the 5 minutes observation period the following parameters were recorded: […]
time spent on the open arms time spent on the closed arms number of open arm entries number of closed arm entries.
The drug effect was expressed as percent increase of the time spent on the open arms and number of open arm entries. The minimum effective dose which caused a significant increase of the time spent on the open arms was calculated for every substance [Pelow, S., Chopin, P., File, S. E., Briley, M.: J. Neurocsi. Methods 14, 149-167 (1985)].

Where [3] appears, read: ip, read-out: LD50 (mg/kg, i.p.).
Where [4] appears, read: po, read-out: LD50 (mg/kg, p.o.).

The structures appear in SMILES notation. Read-outs that look alike come from different tables or passages of the source.

As for `COc1ccc(C=Cc2nccc3cc(OC)c(OC)cc23)cc1` [Example 21, 6,7-dimethoxy-1-(4-methoxystyryl)-isoquinoline], the LD50 at 168 h in “in vivo” (setting [3]) is more than 300 mg/kg; in “in vivo” (setting [4]), more than 1000 mg/kg. For the same compound, the values for the minimal effective dose (in series [1]; with Male Wistar rats) were 0.01 mg/kg and 0.03 mg/kg, respectively.

As for `Clc1ccc(C=Cc2nccc3ccccc23)c(Cl)c1` [Example 8, 1-(2,4-dichlorostyryl)-isoquinoline], the LD50 at 168 h in the series “in vivo” (setting [3]) is more than 300 mg/kg; in the series “in vivo” (setting [4]), more than 1000 mg/kg.

For `COc1cc2cc(C)nc(C=Cc3ccc(Cl)cc3)c2cc1OC` [Example 2, 1-(4-chlorostyryl)-3-methyl-6,7-dimethoxyisoquinoline], the figures for the LD50 at 168 h in “in vivo” (setting [3]) and in the series “in vivo” (setting [4]) were more than 300 mg/kg and more than 1000 mg/kg, respectively.

Take `COc1cc2cc(C)nc(C=Cc3ccc(C#N)cc3)c2c(OC)c1OC` [Example 9, 1-(4-cyanostyryl)-3-methyl-6,7,8-trimethoxyisoquinoline]: the figures for the LD50 at 168 h in “in vivo” (setting [3]) and in “in vivo” (setting [4]) were more than 300 mg/kg and more than 1000 mg/kg, respectively. The minimal effective dose in the series on Male Wistar rats was 0.01 mg/kg.

For the compound `COc1ccc(C=Cc2nccc3cc4c(cc23)OCO4)cc1OC` [Example 20, 1-(3,4-dimethoxystyryl)-6,7-methylenedioxyisoquinoline], the LD50 at 168 h was more than 300 mg/kg in the series “in vivo” (setting [3]) and more than 1000 mg/kg in “in vivo” (setting [4]).

As to `COc1cc2ccnc(C=Cc3ccc(F)cc3)c2cc1OC` [Example 5, 1-(4-fluorostyryl)-6,7-dimethoxyisoquinoline], the LD50 at 168 h in “in vivo” (setting [3]) was more than 300 mg/kg; in “in vivo” (setting [4]), more than 1000 mg/kg. The minimal effective dose in the series with Male Wistar rats is 0.0003 mg/kg.

Turning to `CN1C(=O)CN=C(c2ccccc2)c2cc(Cl)ccc21` [Diazepam, reference compound], the minimal effective dose in series [1] was found to be 0.1 mg/kg; in series [2], 2.5 mg/kg; in the series with Male Wistar rats it was 0.1 mg/kg.

`FC(F)(F)c1ccc(C=Cc2nccc3cc4c(cc23)OCO4)cc1` [Example 3, 6,7-methylenedioxy-1-[(4-trifluoromethyl)-styryl]-isoquinoline]: the LD50 at 168 h in the series “in vivo” (setting [3]) was more than 300 mg/kg; in “in vivo” (setting [4]), more than 1000 mg/kg. Also, the minimal effective dose in series [1] turned out to be 0.0001 mg/kg; in series [2], 0.1 mg/kg; in the series on Male Wistar rats it was 1e-05 mg/kg. Besides, the “times more effective than diazepam” value in series [2] (elevated plus maze, relative to diazepam) was found to be 25 times.

As for `COc1cc2ccnc(C=Cc3ccc(C(F)(F)F)cc3)c2cc1OC` [Example 6, 6,7-dimethoxy-1-[4-(trifluoromethyl)-styryl]-isoquinoline], the LD50 at 168 h was more than 300 mg/kg in “in vivo” (setting [3]) and more than 1000 mg/kg in the series “in vivo” (setting [4]). For the same compound, the minimal effective dose turned out to be 0.0001 mg/kg in series [1] and 0.01 mg/kg in the series with Male Wistar rats.

For `COc1cc2cc(C)nc(C=Cc3ccc([N+](=O)[O-])cc3)c2cc1OC` [Example 4, 3-methyl-6,7-dimethoxy-1-(4-nitrostyryl)-isoquinoline], the LD50 at 168 h in “in vivo” (setting [3]) was more than 300 mg/kg; in “in vivo” (setting [4]) it was more than 1000 mg/kg. The minimal effective dose in the series on Male Wistar rats came to 0.01 mg/kg.

With `Cc1cc2cc3c(cc2c(C=Cc2cccc(Br)c2)n1)OCO3` [Example 19, 1-(3-bromostyryl)-3-methyl-6,7-methylenedioxyisoquinoline], the LD50 at 168 h in the series “in vivo” (setting [3]) was more than 300 mg/kg; in “in vivo” (setting [4]), more than 1000 mg/kg.

With `COc1ccc(C=Cc2nccc3cc(OC)c(OC)cc23)cc1OC` [Example 7, 1-(3,4-dimethoxystyryl)-6,7-dimethoxyisoquinoline], the LD50 at 168 h is more than 300 mg/kg in “in vivo” (setting [3]) and 1000 mg/kg in the series “in vivo” (setting [4]).
